Experiments:
mouse Mdr1b = mouse Mdr1b (Mus musculus, UniProt P06795); assay: Gentest ABC transporter membrane ATPase assay; details: 0–300 μM, 30 min, 37°C
Excerpt: (§1) The Gentest ATPase assay (Corning, Germany) was used to investigate the binding kinetics of the panel of P-gp substrates against membranes constituted to display human MDR1, mouse Mdr1a, mouse Mdr1b and mouse Bcrp. The assays measure the accumulation of inorganic phosphate (absorbance at 800 nm) produced in the breakdown of ATP to ADP. […] The assays were used in accordance with the manufacturer’s protocol to calculate (GraphPad Prism) the Michaelis-Menten parameters Km and VMAX. For the assay test compounds were serially diluted to produce an assay concentration range of 0–300 μM with the kinetics of ATP turnover examined over 30 min at 37°C.

[1] = tested on: P-glycoprotein (Mdr1a/Mdr1b) in isolated perfused mouse lung; assay: Isolated perfused mouse lung (IPML) airway-to-perfusate absorption, Mdr1a/1b (+/+) vs (−/−); details: male, mouse, 50 μM
Method: The atria and the lower half of the heart were cut to allow the free flow of perfusate. The lungs were removed and suspended vertically in a custom water-jacketed glass thorax (Radleys, Essex, UK) maintained at 37°C.
Following dosing of compound into the IPML airways serial samples (250 μL) were collected for bioanalysis from the 10 mL recirculating perfusate reservoir. Each sample collected from the reservoir was replaced with an equal volume of fresh warmed, oxygenated perfusate. Upon termination of the experiment the dose solutions, apparatus washings and perfusate samples were collected for mass balance calculations enabling determination of the actual total dose delivered to the lungs.
Radioactive compounds were directly analysed by liquid scintillation counting. Volumes of 50 μL perfusate samples were mixed with 3 mL of Scintisafe 3 Liquid Scintillation Fluid (Fisher, UK) and transferred to vials for scintillation counting using a TriCarb 2900TR (Packard Bioscience, USA).
After accounting for the mass of compound removed at each sample point, plots of the cumulative ‘%deposited dose absorbed’ versus ‘time’ were generated and subject to nonlinear regression analysis according to a first-order absorption one-compartment accumulating model (Eq. 1) to generate estimates for the extent (F) and rate (Ka) of absorption from the IPML airways to the recirculating perfusate.
The data was also subject to standard non-compartmental analysis, specifically Area Under Curve (AUC0–30 min) of ‘%deposited dose absorbed’ versus ‘time’ (units: %Dose.min) and reflecting for the exclusively accumulating perfusate ‘compartment’ the exposure arising from the IPML absorption process alone.

[2] = Immobilised artificial membrane (IAM) chromatography; assay type: physicochemical; details: extrapolated to 100% water; mean of four experiments
Method: IAM chromatography provided an experimental measure of substrate membrane affinity and phospholipid interaction. The IAM column (Regis Technologies Inc., Hichrom, Reading, UK; IAM.PC.DD2 10 cm x 4.6 mm ID column) was run under isocratic eluting conditions with the retention of all compounds determined under three mobile phase conditions: 10%, 20% and 30% acetonitrile in water, and from which the theoretical retention time in 100% water was calculated by linear regression. LogK^IAM values were calculated according to Eq. 2:2 LogK^IAM=LogTr−T0/T0
where Tr and T0 are respectively the retention times of the substrate in 100% water and of the unretained compound, i.e. eluting within the solvent front of 75 s in all experiments.

human MDR1 = human MDR1 (Homo sapiens, UniProt P08183); assay: Gentest ABC transporter membrane ATPase assay; details: ATPase, 0–300 μM, 30 min, 37°C
Excerpt: as §1

human MDR1 (P-gp) = human MDR1 (P-gp) (Homo sapiens, UniProt P08183); assay: Gentest ABC transporter membrane ATPase assay; details: human, membranes displaying human MDR1 (Gentest ATPase assay)
Excerpt: as §1

P-gp = tested on: P-gp; set-up: method as in PMID 23670704; details: IPRL and IPML models; cited from earlier work
mouse Mdr1a = mouse Mdr1a (Mus musculus, UniProt P21447); assay: Gentest ABC transporter membrane ATPase assay; details: 0–300 μM, 30 min, 37°C
mouse Bcrp = biological target: T1, mouse Bcrp (Mus musculus, UniProt Q7TMS5); assay: Gentest ABC transporter membrane ATPase assay; assay type: biochemical; details: ATPase; 0 indicates no enzyme turnover
T1 construct: purchased Corning (Gentest), Germany
T1 sequence (Q7TMS5 1-657): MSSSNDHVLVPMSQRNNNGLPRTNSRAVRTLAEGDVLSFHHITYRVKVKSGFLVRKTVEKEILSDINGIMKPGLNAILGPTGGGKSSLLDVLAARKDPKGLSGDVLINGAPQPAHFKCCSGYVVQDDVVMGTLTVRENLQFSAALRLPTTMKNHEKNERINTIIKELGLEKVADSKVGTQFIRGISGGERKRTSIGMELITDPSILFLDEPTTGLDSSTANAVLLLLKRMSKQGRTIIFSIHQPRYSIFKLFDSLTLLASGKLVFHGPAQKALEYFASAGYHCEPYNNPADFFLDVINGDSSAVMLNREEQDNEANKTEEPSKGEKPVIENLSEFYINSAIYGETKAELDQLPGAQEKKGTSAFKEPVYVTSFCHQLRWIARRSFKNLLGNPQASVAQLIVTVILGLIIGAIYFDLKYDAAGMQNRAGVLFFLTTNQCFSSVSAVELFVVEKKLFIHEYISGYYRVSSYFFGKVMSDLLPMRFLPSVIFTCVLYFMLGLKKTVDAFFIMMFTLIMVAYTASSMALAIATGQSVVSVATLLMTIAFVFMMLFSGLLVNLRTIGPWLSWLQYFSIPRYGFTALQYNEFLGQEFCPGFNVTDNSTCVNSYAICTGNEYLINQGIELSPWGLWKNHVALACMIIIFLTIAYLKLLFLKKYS
Excerpt: as §1

[3] = Multi-lamellar liposome vesicle (MLV) partitioning; assay type: physicochemical; details: (C0−CS)/C0, 1 μg/mL, 4 h, 37°C, PBS pH 7.4
Method: MLVs were formed as previously described ([20]). Briefly, solutions of 8 mg phosphatidylcholine and 2 mg phosphatidylglycerol in 10 mL chloroform were completely dried to a lipid film (rotation under vacuum).
These preparations were then incubated at 37°C for 4 h under shaking conditions to allow equilibration of compound between the lipid and aqueous fractions. The MLVs were then pelleted and 100 μL of supernatant removed for analysis by radiometric or LC-MS/MS methods as described above. Partitioning into the MLVs was determined according to Eq. 3:3 MLVpartitioning=C0−CS/C0
where C0 is the initial compound concentration (1 μg/mL) and CS is the compound concentration present in the aqueous supernatant at the end of 4 h incubation.

[4] = tested on: P-gp (Mdr1a/1b) in mouse intestinal segments; assay: Ussing chamber intestinal permeability, ileal segments Mdr1a/1b (+/+) vs (−/−); details: mucosal to serosal, 50 μM, 180 min
Method: The bathing fluid for both mucosal and serosal surfaces (3 mL volume in each chamber) comprised oxygenated Krebs-Henseleit buffer maintained at 37°C (heating block) under stirred conditions (gas flow manifold). […] Any intestinal segments presenting an initial TEER of lower than 80 Ω.cm^2 were discarded prior to the experiment, likewise any segments whose TEER decreased by more than 10% over the course of the experiment were excluded.
Thereafter permeability coefficients were determined according to Eq. 4:4 ρ=dM/dt/A^∗C0

Sequence of mouse Mdr1b (P06795 whole entry, the tested form may be a part): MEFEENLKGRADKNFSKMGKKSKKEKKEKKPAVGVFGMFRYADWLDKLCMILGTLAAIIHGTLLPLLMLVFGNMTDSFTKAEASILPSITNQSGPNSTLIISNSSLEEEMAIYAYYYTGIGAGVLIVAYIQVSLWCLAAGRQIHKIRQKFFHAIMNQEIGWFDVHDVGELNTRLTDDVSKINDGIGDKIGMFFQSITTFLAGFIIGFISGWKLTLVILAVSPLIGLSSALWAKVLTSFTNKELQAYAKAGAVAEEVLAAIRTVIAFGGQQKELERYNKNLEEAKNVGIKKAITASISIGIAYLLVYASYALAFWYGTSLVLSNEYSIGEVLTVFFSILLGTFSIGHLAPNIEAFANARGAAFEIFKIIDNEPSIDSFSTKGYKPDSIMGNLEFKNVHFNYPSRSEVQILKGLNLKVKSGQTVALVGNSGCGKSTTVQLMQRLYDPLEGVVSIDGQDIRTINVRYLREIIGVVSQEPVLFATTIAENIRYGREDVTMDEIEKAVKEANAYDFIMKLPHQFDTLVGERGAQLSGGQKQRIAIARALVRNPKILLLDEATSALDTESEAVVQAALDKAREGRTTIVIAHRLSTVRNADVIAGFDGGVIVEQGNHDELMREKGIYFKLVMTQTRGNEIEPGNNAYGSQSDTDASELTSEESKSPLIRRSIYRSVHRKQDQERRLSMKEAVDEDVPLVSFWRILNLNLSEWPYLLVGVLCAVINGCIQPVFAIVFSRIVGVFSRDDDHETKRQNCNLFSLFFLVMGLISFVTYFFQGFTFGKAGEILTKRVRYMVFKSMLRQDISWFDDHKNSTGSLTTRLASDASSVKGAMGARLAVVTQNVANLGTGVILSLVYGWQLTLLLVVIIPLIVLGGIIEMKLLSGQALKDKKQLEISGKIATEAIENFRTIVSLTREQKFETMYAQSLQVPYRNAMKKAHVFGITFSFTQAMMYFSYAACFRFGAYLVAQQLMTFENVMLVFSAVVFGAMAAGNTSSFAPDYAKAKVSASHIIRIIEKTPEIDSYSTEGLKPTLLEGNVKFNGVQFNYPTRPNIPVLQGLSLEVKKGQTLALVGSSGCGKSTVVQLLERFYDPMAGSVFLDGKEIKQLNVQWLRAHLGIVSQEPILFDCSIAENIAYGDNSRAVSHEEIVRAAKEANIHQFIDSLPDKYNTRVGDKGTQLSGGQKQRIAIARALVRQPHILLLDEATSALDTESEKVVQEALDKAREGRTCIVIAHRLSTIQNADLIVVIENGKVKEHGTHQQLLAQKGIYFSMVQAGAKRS
Sequence of mouse Mdr1a (P21447 whole entry): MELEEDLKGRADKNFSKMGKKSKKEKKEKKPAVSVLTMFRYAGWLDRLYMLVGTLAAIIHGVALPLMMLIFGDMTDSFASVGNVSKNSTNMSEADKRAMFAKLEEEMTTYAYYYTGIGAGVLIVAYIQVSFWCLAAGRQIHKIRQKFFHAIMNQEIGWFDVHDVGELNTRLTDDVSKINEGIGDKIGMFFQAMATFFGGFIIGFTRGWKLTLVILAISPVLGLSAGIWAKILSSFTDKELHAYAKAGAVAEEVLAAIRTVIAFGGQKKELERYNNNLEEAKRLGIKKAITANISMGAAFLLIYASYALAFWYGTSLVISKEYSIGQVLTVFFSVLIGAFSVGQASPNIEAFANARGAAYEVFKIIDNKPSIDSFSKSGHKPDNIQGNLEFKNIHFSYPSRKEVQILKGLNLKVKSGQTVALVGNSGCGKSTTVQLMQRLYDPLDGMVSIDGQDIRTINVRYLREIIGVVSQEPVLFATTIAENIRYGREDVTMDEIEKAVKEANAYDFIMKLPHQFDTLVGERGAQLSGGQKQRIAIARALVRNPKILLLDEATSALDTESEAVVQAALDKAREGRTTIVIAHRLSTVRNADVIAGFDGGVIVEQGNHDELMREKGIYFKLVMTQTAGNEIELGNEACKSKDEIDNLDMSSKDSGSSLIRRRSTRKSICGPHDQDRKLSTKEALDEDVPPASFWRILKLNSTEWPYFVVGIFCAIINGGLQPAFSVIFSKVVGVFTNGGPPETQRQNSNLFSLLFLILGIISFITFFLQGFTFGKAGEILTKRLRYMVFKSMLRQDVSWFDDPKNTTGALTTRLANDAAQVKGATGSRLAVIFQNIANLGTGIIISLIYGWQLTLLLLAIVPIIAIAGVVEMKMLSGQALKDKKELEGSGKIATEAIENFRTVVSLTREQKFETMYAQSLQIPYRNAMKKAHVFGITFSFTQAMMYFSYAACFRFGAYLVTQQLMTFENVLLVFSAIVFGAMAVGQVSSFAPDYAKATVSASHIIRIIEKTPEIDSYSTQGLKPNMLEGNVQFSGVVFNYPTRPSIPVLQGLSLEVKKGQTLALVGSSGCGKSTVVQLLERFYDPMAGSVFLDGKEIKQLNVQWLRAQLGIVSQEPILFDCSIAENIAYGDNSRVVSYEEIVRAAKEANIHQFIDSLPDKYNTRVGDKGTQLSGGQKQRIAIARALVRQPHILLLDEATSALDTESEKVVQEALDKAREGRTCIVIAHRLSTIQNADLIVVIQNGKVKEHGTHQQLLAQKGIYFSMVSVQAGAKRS
Sequence of human MDR1 (P-gp) (P08183 whole entry): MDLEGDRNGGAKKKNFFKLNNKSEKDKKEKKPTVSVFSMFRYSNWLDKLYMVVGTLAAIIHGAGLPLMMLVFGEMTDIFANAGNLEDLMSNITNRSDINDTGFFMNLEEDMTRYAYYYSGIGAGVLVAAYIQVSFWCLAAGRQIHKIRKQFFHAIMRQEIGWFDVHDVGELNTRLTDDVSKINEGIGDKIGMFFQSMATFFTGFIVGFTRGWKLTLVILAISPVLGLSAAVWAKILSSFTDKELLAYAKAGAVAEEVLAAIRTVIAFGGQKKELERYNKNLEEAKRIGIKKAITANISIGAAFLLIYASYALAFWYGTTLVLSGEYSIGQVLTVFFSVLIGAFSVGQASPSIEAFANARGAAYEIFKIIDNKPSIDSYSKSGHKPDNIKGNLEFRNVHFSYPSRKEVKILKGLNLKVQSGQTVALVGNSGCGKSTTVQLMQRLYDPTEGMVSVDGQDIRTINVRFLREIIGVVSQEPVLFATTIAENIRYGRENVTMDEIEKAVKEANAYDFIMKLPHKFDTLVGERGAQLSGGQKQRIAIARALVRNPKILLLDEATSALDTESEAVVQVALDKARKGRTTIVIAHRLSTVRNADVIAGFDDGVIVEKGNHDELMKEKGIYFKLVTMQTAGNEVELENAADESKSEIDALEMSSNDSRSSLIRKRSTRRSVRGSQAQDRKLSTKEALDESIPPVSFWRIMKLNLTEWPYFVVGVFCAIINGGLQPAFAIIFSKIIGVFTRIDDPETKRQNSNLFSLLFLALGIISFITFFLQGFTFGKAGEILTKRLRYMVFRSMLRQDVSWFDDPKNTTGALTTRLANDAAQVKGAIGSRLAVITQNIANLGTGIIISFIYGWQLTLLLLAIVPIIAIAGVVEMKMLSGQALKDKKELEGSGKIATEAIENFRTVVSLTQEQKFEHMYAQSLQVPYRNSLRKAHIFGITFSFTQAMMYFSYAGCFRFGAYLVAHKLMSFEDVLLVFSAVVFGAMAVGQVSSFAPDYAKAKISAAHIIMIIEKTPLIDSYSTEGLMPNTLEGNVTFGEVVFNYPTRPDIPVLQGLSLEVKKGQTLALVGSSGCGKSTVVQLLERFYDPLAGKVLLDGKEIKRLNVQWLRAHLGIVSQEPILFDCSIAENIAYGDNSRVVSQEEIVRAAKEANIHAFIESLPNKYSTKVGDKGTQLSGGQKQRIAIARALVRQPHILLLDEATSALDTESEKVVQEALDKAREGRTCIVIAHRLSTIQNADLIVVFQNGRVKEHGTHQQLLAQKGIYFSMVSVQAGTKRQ
Sequence of human MDR1 (P08183 whole entry): as above

Km (mouse Mdr1b): 32 µM | Vmax (mouse Mdr1b): 47.1 µM/min | Mdr1a/1b (+/+) ‘F’ estimate by model fit [95% CI) [1]: 25.5 [11.4 to 39.6] | Mdr1a/1b (-/-) ‘F’ estimate by model fit [95% CI) [1]: 29.1 [19.5 to 38.6] | Mdr1a/1b (+/+) % Deposited Dose absorbed ([1]; 30 min): 20.0% | Mdr1a/1b (-/-) % Deposited Dose absorbed ([1]; 30 min): 20.0% | LogK^IAM [2]: 1.24 | Vmax (human MDR1): 41.3 µM/min | Km at 30 min (human MDR1 (P-gp)): 24.9 µM | Km (mouse Mdr1a): 31.7 µM | Vmax (mouse Mdr1a): 39.5 µM/min | Vmax (mouse Bcrp): 0 µM/min | MLV Partitioning [3]: 0.45 | Mdr1a/1b (−/−) Permeability coefficient ([4]; P-gp knockout intestinal segments): 15.73 ± 3.52 cm/s (x10^−6) | Mdr1a/1b (+/+) Permeability coefficient ([4]; wild-type intestinal segments): 1.56 ± 0.69 cm/s (x10^−6)
SMILES: CC(C)(C)NC(=O)[C@@H]1C[C@@H]2CCCC[C@@H]2CN1C[C@@H](O)[C@H](Cc1ccccc1)NC(=O)[C@H](CC(N)=O)NC(=O)c1ccc2ccccc2n1 [Saquinavir, saquinavir]
effect of P-gp inhibition (GF120918) upon pulmonary absorption (P-gp): unaffected

Reference: PMC5736782, “The Differential Absorption of a Series of P-Glycoprotein Substrates in Isolated Perfused Lungs from Mdr1a/1b Genetic Knockout Mice can be Attributed to Distinct Physico-Chemical Properties: an Insight into Predicting Transporter-Mediated, Pulmonary Specific Disposition” (Pharmaceutical Research, 2017)
